Patent US20080292736A1, “Bioavailability enhancing activity of carum carvi extracts and fractions thereof” (COUNCIL OF SCIENTIFIC AND INDUSTRIAL RESEARCH, priority 2001, published 2008)

Assay: Enhancement of bioavailability of drugs given to rats with bioenhancers (plasma drug level by HPLC)
Settings: for % Enhancement in bioavailability, BE from Carum carvi: drug with Carum carvi bioenhancer (aqueous or 50% alcoholic extract 30 mg/kg or Fraction No. 1 15 mg/kg), drug dose mg/kg; for % Enhancement in bioavailability, Carum carvi + Zingiber officinale: drug with Carum carvi bioenhancer and Zingiber officinale 35 mg/kg; for % Enhancement in bioavailability, Carum carvi + Zingiber officinale / % Enhancement in bioavailability, Carum carvi + Piperine / % Enhancement in bioavailability, BE from Zingiber officinale / % Enhancement in bioavailability, Piperine as BE: drug dose as in row; for % Enhancement in bioavailability, Carum carvi + Piperine: drug with Carum carvi bioenhancer and piperine 8 mg/kg; for % Enhancement in bioavailability, BE from Zingiber officinale: drug with Zingiber officinale 50% alcoholic extract of fresh ginger 35 mg/kg; for % Enhancement in bioavailability, Piperine as BE: drug with piperine 8 mg/kg; for % Enhancement in bioavailability, Carum carvi (Cc) Frac 1.: nutraceutical with Carum carvi Fraction No. 1 15 mg/kg; for % Enhancement in bioavailability, Carum carvi + Zingiber officinale, Frac 1. (Cc): nutraceutical with Carum carvi Fraction No. 1 and Zingiber officinale; for % Enhancement in bioavailability, Carum carvi + piperine, Frac 1. (Cc): nutraceutical with Carum carvi Fraction No. 1 and piperine; for % Enhancement in bioavailability, Carum carvi (Cc) Extr.: nutraceutical with Carum carvi extract 30 mg/kg; for % Enhancement in bioavailability, Carum carvi + Zingiber officinale, Extr. (Cc): nutraceutical with Carum carvi extract and Zingiber officinale; for % Enhancement in bioavailability, Carum carvi + piperine, Extr. (Cc): nutraceutical with Carum carvi extract and piperine
Experimental: Bioenhancers of Zingiber officinale, mean 50% alcoholic extract of fresh ginger. The doses remain unchanged whether the bioenhancers are used alone or in combination.
The amount of bioenhancers used are given below: • i. from Carum carvi: extract 30 mg/kg body weight (rats); Fraction No. 1: 15 mg/kg body weight (rats) • ii. piperine 8 mg/kg body weight (rats) • iii. Zingiber officinale: 35 mg/kg body weight (rats) • The drug used was rifampicin (40 mg/kg). The drug alone or in combination with the bioenhancers was administered to rats as given below: • Group 1: control • Group 2: Rifampicin alone • Group 3: bioenhancer alone • Group 4: Rifampicin with Carum carvi bioenhancer
Blood from the control/treated animals at predetermined intervals (0-24 hours) (total 14 timings). Rifampicin was extracted from the blood (plasma) using dichloromethane. […] The mobile phase was phosphate buffer:acetonitrile in a ratio of 40:60, and a flow rate of 1.0 ml/min.

Molecule | % Enhancement in bioavailability, BE from Carum carvi | % Enhancement in bioavailability, Carum carvi + Zingiber officinale | % Enhancement in bioavailability, Carum carvi + Piperine | % Enhancement in bioavailability, BE from Zingiber officinale | % Enhancement in bioavailability, Piperine as BE | % Enhancement in bioavailability, Carum carvi (Cc) Frac 1. | % Enhancement in bioavailability, Carum carvi + Zingiber officinale, Frac 1. (Cc) | % Enhancement in bioavailability, Carum carvi + piperine, Frac 1. (Cc) | % Enhancement in bioavailability, Carum carvi (Cc) Extr. | % Enhancement in bioavailability, Carum carvi + Zingiber officinale, Extr. (Cc) | % Enhancement in bioavailability, Carum carvi + piperine, Extr. (Cc)
CC(=O)N1CCN(c2ccc(OCC3COC(Cn4ccnc4)(c4ccc(Cl)cc4Cl)O3)cc2)CC1 (stereo not shown) [Ketoconazole] | 55% | 96% | 100% | 125% | 105% | – | – | – | – | – | –
CC1=C(/C=C/C(C)=C/C=C/C(C)=C/C=C/C=C(C)/C=C/C=C(C)/C=C/C2=C(C)CCCC2(C)C)C(C)(C)CCC1 [B-carotene] | – | – | – | 35% | 29% | 55% | 72% | 59% | 47% | 63% | 45%
CC(C)(C)NCC(O)c1ccc(O)c(CO)c1 (stereo not shown) [Salbutamol] | 75% | 80% | 89% | 78% | 60% | – | – | – | – | – | –
C[C@@H]1[C@H](O)[C@@H](C)/C=C/C=C/C=C/C=C/C=C/C=C/C=C/[C@H](O[C@@H]2O[C@H](C)[C@@H](O)[C@H](N)[C@@H]2O)C[C@@H]2O[C@](O)(C[C@@H](O)C[C@@H](O)[C@H](O)CC[C@@H](O)C[C@@H](O)CC(=O)O[C@H]1C)C[C@H](O)[C@H]2C(=O)O [Amphotericin B] | 78% | 80% | 90% | Nil | nil | – | – | – | – | – | –
O=C(CCCN1CCC(O)(c2ccc(Cl)cc2)CC1)c1ccc(F)cc1 [Haloperidol] | 95% | 85% | 90% | Nil | nil | – | – | – | – | – | –
Cc1ncc(CO)c(CO)c1O [Vit B 6] | – | – | – | Nil | Nil | Nil | Nil | Nil | nil | Nil | Nil
[Zn] [Zinc] | – | – | – | nil | nil | Nil | Nil | Nil | nil | Nil | nil
Nc1ccc(S(=O)(=O)c2ccc(N)cc2)cc1 [Dapsone] | 56% | 68% | 67% | 46% | 34% | – | – | – | – | – | –
CN(Cc1cc(Br)cc(Br)c1N)C1CCCCC1 [Bromhexine] | Nil | 71% | 70% | 67% | 67% | – | – | – | – | – | –
CN(Cc1cnc2nc(N)nc(N)c2n1)c1ccc(C(=O)N[C@@H](CCC(=O)O)C(=O)O)cc1 [Methotrexate] | 76% | 102% | 89% | 87% | 65% | – | – | – | – | – | –
COc1c(C)c2c(c(O)c1C/C=C(\C)CCC(=O)OCCN1CCOCC1)C(=O)OC2 [Mycophenolate Mofeit] | Nil | nil | nil | Nil | nil | – | – | – | – | – | –
NCCCC[C@H](N[C@@H](CCc1ccccc1)C(=O)O)C(=O)N1CCC[C@H]1C(=O)O [Lisinopril] | 79% | 90% | 95% | 76% | 85% | – | – | – | – | – | –
CSCC[C@H](N)C(=O)O [Methionine] | – | – | – | 23% | 11% | 28% | 37% | 30% | 20% | 30% | 25%
C=CC1=C(C(=O)O)N2C(=O)[C@@H](NC(=O)/C(=N\O)c3csc(N)n3)[C@H]2SC1 [Cefidinir] | 89% | 130% | 95% | 35% | 60% | – | – | – | – | – | –
[Ca+2] [Calcium] | – | – | – | nil | nil | Nil | Nil | Nil | nil | Nil | nil
CC1(C)S[C@@H]2[C@H](NC(=O)[C@H](N)c3ccc(O)cc3)C(=O)N2[C@H]1C(=O)O [Amoxycillin] | 75% | 100% | 115% | 80% | 120% | – | – | – | – | – | –
CS(=O)(=O)Nc1ccc([N+](=O)[O-])cc1Oc1ccccc1 [Nimesulide] | 100% | 145% | 140% | 144% | 132% | – | – | – | – | – | –
CCc1cc(C(N)=S)ccn1 [Ethionamide] | 68% | 70% | 65% | 56% | 45% | – | – | – | – | – | –
Vit B 12 | – | – | – | Nil | Nil | nil | Nil | Nil | Nil | Nil | Nil
Cc1ncc(C[n+]2csc(CCO)c2C)c(N)n1 [Vit B 1] | – | – | – | 31% | 17% | 42% | 55% | 26% | 37% | 43% | 21%
